Reference: US20240271138A1, “METHODS AND COMPOSITIONS FOR MODULATING STING SIGNALING AND INNATE IMMUNE RESPONSES” (The Broad Institute, Inc., priority 2021, published 2024)

Key:
human STING = human STING (Homo sapiens, UniProt Q86WV6); conditions: cited from earlier work
type 1 IFN expression = conditions: cited from earlier work
T-cells = conditions: cited from earlier work
[1] = tested on: STING LBD fusion proteins (PH-S139, 2XFYVE-S139); experiment: mNG fluorescence and immunoblots of organelle-targeted STING LBD fusion proteins; format: cell-based, human; conditions: nigericin stimulation
Description: Upper, concentrated STING is able to mediate TBK1 for trans-phosphorylation. Lower, diluted STING is unable to mediate TBK1's transphosphorylation.

STING-HA = STING-HA degradation in 293T stably expressing STING-HA, HA intracellular staining; format: cell-based, human; conditions: 293T STING-HA; cGAMP 6 hours; pre-treatment with U18666A; FIGS. 11G-11H
Description: FIGS. 11A-11H show interaction of ESCRT components with STING. FIGS. 11A-11D show immunofluorescence of CD63, HGS, and STING (FIG. 11A); p62, HGS, and STING (FIG. 11B); LC3B, HGS, and STING (FIG. 11C); p62, CD63, and STING (FIG. 11D) in 293T stably expressing STING-HA and non-stimulated, relative to FIGS. 4A-4D. […] Dashed box represents the cropped region enlarged in the right panel for the +cGAMP condition. Scale bar is 10 μm. One representative field of n≥3 independent fields in n=3 independent experiments. […] One representative experiment of n=3 independent experiments with n=2 technical replicates per experiment. […] Each dot represents an individual replicate **** p<0.0001.
Data was analyzed with FlowJo (BD).

DNAJC13 = experiment: Immunofluorescence of DNAJC13 in 293T cells; format: cell-based, human; conditions: 1 μm VPS34-IN1, FIG. 22B
Description: (§1) FIGS. 22A-22F show endosome localization and J domain activity are essential for DNAJC13's function on STING.

STING = experiment: Immunoblots of U937 and STING-HA 293T cells treated with VPS34-IN1 and cGAMP; format: cell-based, human; conditions: 1 μM VPS34-IN1
Description: as §1

[2] = sgCTRL cells, cGAMP stimulation, FIGS. 22D-22E

Chain of human STING (Q86WV6 whole entry H232R): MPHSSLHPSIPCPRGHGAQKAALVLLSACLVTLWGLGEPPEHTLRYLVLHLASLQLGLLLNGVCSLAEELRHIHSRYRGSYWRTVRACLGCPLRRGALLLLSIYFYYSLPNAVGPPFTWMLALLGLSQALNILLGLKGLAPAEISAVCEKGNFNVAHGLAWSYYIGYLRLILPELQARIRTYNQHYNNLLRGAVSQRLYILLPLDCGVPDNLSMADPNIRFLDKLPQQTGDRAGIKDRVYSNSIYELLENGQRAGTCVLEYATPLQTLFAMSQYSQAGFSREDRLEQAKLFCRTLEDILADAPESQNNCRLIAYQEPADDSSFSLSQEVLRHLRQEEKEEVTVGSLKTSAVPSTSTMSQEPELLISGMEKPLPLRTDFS

## Cc1ccc2c(=O)c3cccc(CC(=O)O)c3oc2c1C [DMXAA, 6-dimethylxanthenone-4-acetic acid]
Human STING
  binding to human STING versus murine STING: substantially weaker binding to human STING in comparison to murine STING
Type 1 IFN expression
  type 1 IFN expression: induces type 1 IFN expression
T-cells
  apoptosis in T-cells: elicits stress pathways that induce apoptosis in T-cells

## CO[C@@H]1C[C@@H](C[C@H]2CC[C@H](C)[C@H]([C@@H](C)C(=O)O)O2)O[C@]2(O[C@](C)([C@H]3CC[C@@](C)([C@@H]4O[C@@H]([C@H]5O[C@@](O)(CO)[C@H](C)C[C@@H]5C)C[C@@H]4C)O3)C[C@H]2C)[C@@H]1C [Nigericin]
[1]; FIG. 17E
  PH-S139 localization: PH-S139 localization change was observed to dispersed vesicles
[1]; FIG. 17F
  STING activation (phosphorylation) of fusion proteins: STING activation was observed in PH-S139 and 2XFYVE-S139 but not with mitochondria localized TomS33-S139 or WT STING

## CCN(CC)CCO[C@H]1CC[C@@]2(C)C(=CC[C@@H]3[C@@H]2CC[C@]2(C)C(=O)CC[C@@H]32)C1 [U18666A]
STING-HA
  STING degradation (STING-HA MFI): marked reduction in STING degradation

## CC(C)(O)CNc1ncc(-c2ccnc(Nc3ccnc(Cl)c3)n2)c(CC2CC2)n1 [VPS34-IN1]
DNAJC13
  DNAJC13 endosomal localization: clear diffusion of DNAJC13 from the endosome
STING; STING-HA 293T, digitonin and cGAMP, FIG. 22E
  STING induced autophagy: greatly enhanced
STING; [2]
  STING degradation: enhancement of STING degradation
  STING phosphorylation: strong boost of STING phosphorylation

## cyclic GMP-AMP [cGAMP]
T-cells; exogenous cGAMP
  T-cell proliferation and T-cell death: impairs T-cell proliferation and can cause T-cell death
